Source: US8017629B2, “Compounds and uses thereof in modulating amyloid β” (Neurogenetic Pharmaceuticals, Inc., priority 2003, dated 2011)

Tested on: Aβ42 levels in the extracellular medium
Assay: FRET (HTRF) assay, Aβ42 level of the extracellular medium of SH-SY5Y-APP cells
Type: cell-based
Settings: Homo sapiens, concentration at which reduction of Aβ42 level was half of the maximum reduction, read-out: Ab42 Potency
Description: Compounds were evaluated for activity in modulating Aβ42 and Aβ40 levels in the extracellular medium using a homogeneous time-resolved fluorescence (HTRF) assay as follows.
For the HTRF assay, either 5 or 10 μl of supernatant from treated cells was added to 10 or 15 μl of labeled antibody pairs, for a total volume of 20 μl, and incubated for 20-24 hours at 4° C. The labeled antibody pairs were either 8000 pg B436-XL665 and 400 pg B113 Europium, for assessing Aβ40 levels, or 8000 pg B436-XL665 and 400 pg A387 Europium, for assessing Aβ42 levels, diluted in 50 mM NaPO4, 0.2% BSA, 0.5M KF, pH 7. The fluorescence was read on a BMG Rubystar at 620 nm and 665 nm.

| Structure (SMILES) | EC50 [µM] |
| --- | --- |
| COc1ccc(C)c(Nc2nc(-c3ccc(-n4cnc(C)c4)nc3)cs2)c1 [Compound 197] | < 0.2 |
| CCN(CC)c1ccc(Nc2nc(-c3ccc(-n4cnc(C)c4)cc3)cs2)c(C)c1 [Compound 179] | 0.2 to 1 |
| c1cc2c(cc1Nc1nc(-c3ccc4c(c3)OCO4)cs1)OCO2 [Compound 105] | 1.1 to 5 |
| CCN(CC)c1ccc(N(CC)c2nc(-c3ccc(-n4ccnc4)cc3)cs2)c(C)c1 [Compound 176] | 5.1 to 10 |
| CSc1cccc(Nc2nc(-c3ccc(N(C)C)cc3)cs2)c1 [Compound 165] | 5.1 to 10 |
| COc1ccc(-c2csc(Nc3ccc(Cl)cc3)n2)c(OC)c1 [Compound 150] | 1.1 to 5 |
| CCc1ccc(C)nc1Nc1ccc(Nc2nc(-c3ccc(-n4ccnc4)cc3)cs2)c(C)c1 [Compound 209] | 5.1 to 10 |
| CN1CCN(c2ccc(-c3csc(Nc4ccc(I)cc4)n3)cc2)CC1 [Compound 126] | 1.1 to 5 |
| CN1CCN(c2ccc(-c3csc(Nc4ccc5[nH]ncc5c4)n3)cc2)CC1 [Compound 141] | 1.1 to 5 |
| CN1CCC(CNc2ccc(Nc3nc(-c4ccc(-n5ccnc5)cc4)cs3)c(C(F)(F)F)c2)CC1 [Compound 216] | 5.1 to 10 |
| Clc1cc(Cl)c(Nc2nc(-c3ccc(-n4ccnc4)cc3)cs2)c(Cl)c1 [Compound 213] | 1.1 to 5 |
| c1cn(-c2ccc(-c3csc(Nc4ccc5[nH]cnc5c4)n3)cc2)cn1 [Compound 156] | 1.1 to 5 |
| CSc1cccc(Nc2nc(-c3ccc4c(c3)OCO4)cs2)c1 [Compound 183] | 10.1 to 30 |
| COc1cc(Nc2nc(-c3ccc4c(c3)OCCO4)cs2)cc(OC)c1OC [Compound 102] | 5.1 to 10 |
| CN1CCN(c2ccc(-c3csc(Nc4ccc(OC(F)(F)F)c(Cl)c4)n3)cc2)CC1 [Compound 198] | 1.1 to 5 |
| COc1cc(Nc2nc(-c3ccc(-c4ccccc4)s3)cs2)cc(OC)c1OC [Compound 107] | 10.1 to 30 |
| COc1ccc(Nc2nc(-c3ccc4c(c3)OCCO4)cs2)cc1OC [Compound 110] | 5.1 to 10 |
| Oc1ccc(Nc2nc(-c3ccc4c(c3)OCO4)cs2)cc1 [Compound 118] | 5.1 to 10 |
| COc1ccc(-c2csc(Nc3ccc(N(C)C)cc3)n2)c(OC)c1 [Compound 114] | 0.2 to 1 |

| Structure (SMILES) | EC50 [µM] |
| --- | --- |
| CSc1cccc(Nc2nc(-c3ccc(-c4ccccc4)cc3)cs2)c1 [Compound 168] | 1.1 to 5 |
| Cc1ccc(Nc2nc(-c3ccc(N4CCN(C)CC4)cc3)cs2)cc1C [Compound 195] | 10.1 to 30 |
| c1cc(Nc2nc(-c3ccc4c(c3)OCO4)cs2)c2cn[nH]c2c1 [Compound 172] | 1.1 to 5 |
| CN1CCN(c2ccc(-c3csc(Nc4ccc5ccccc5c4)n3)cc2)CC1 [Compound 127] | 1.1 to 5 |
| CN1CCN(c2ccc(-c3csc(Nc4ccc(N(C)C)cc4)n3)cc2)CC1 [Compound 117] | 5.1 to 10 |
| CN1CCN(c2ccc(-c3csc(Nc4ccc(Br)cc4)n3)cc2)CC1 [Compound 138] | 10.1 to 30 |
| CN1CCN(C(=O)c2ccc(Nc3nc(-c4ccc(N5CCN(C)CC5)cc4)cs3)cc2)CC1 [Compound 191] | 1.1 to 5 |
| Cc1ccc(Nc2nc(-c3ccc(C#N)cc3)cs2)cc1Cl [Compound 193] | 10.1 to 30 |
| CSc1ccccc1Nc1nc(-c2ccc(N3CCN(C)CC3)cc2)cs1 [Compound 196] | 5.1 to 10 |
| COc1ccc(-c2csc(Nc3ccc4c(c3)OCCO4)n2)c(OC)c1 [Compound 182] | 10.1 to 30 |
| COc1ccc(Nc2nc(-c3ccc4c(c3)CCC(=O)N4)cs2)c(OC)c1 [Compound 120] | 10.1 to 30 |
| CCCN(c1ccc(Cl)c(Cl)c1)c1nc(-c2ccc(-n3ccnc3)cc2)cs1 [Compound 174] | 10.1 to 30 |
| Clc1cccc(Nc2nc(-c3ccc(-n4ccnc4)cc3)cs2)c1 [Compound 152] | 10.1 to 30 |
| CCN(CC)c1ccc(Nc2nc(-c3ccc(-n4ccnc4C)cc3)cs2)c(C)c1 [Compound 189] | 1.1 to 5 |
| CSc1cccc(Nc2nc(-c3ccc(-n4ccnc4)cc3)cs2)c1 [Compound 144] | 0.2 to 1 |
| CN(C)CCNc1ccc(Nc2nc(-c3ccc(-n4ccnc4)cc3)cs2)c(C(F)(F)F)c1 [Compound 217] | 1.1 to 5 |
| Clc1ccc(Nc2nc(-c3ccc(-n4ccnc4)cc3)cs2)cc1Cl [Compound 173] | 1.1 to 5 |
| FC(F)(F)c1cc(N2CC=CC2)ccc1Nc1nc(-c2ccc(-n3ccnc3)cc2)cs1 [Compound 221] | 1.1 to 5 |

Further lines, results first:

| EC50 [µM] | Structure (SMILES) |
| --- | --- |
| < 0.2 | Cc1cn(-c2ccc(-c3csc(Nc4cc(N(C)CC5CC5)ccc4C)n3)cn2)cn1 [Compound 306] |
| 1.1 to 5 | Cc1ccc(NCC2CCN(C)CC2)cc1Nc1nc(-c2ccc(-n3ccnc3)cc2)cs1 [Compound 256] |
| 1.1 to 5 | Cc1cn(-c2ccc(-c3csc(Nc4ccc(N5CC(C)OC(C)C5)cc4)n3)cc2)cn1 (centres unmarked) [Compound 260] |
| < 0.2 | Cc1ccc(C)c(Nc2nc(-c3ccc(-n4cnc(Br)c4)cc3)cs2)c1 [Compound 316] |
| < 0.2 | CCN(CC)c1cc(Nc2nc(-c3ccc(-n4cnc(C)c4)nc3)cs2)c(C)cc1C [Compound 289] |
| 0.2 to 1 | Cc1ccc(CO)cc1Nc1nc(-c2ccc(-n3cnc(Br)c3)cc2)cs1 [Compound 301] |
| 0.2 to 1 | Cc1ccc(C)c(Nc2nc(-c3ccc(-n4ccnc4)cc3)cs2)c1 [Compound 302] |
| 5.1 to 10 | Cc1cn(-c2ccc(-c3csc(Nc4cc(C)c(O)cc4C)n3)cc2)cn1 [Compound 269] |
| 1.1 to 5 | Cc1ccc(N2CCCCC2)cc1Nc1nc(-c2ccc(-n3ccnc3)cc2)cs1 [Compound 252] |
| < 0.2 | COc1cc(C)c(Nc2nc(-c3ccc(-n4cnc(C)c4)c(F)c3)cs2)cc1C(C)C [Compound 310] |
| 0.2 to 1 | Cc1ccc(-n2cccc2)cc1Nc1nc(-c2ccc(-n3cnc(Br)c3)cc2)cs1 [Compound 279] |
| < 0.2 | COc1cc(C)c(Nc2nc(-c3ccc(-n4cnc(C)c4)cc3)cs2)cc1C(C)C [Compound 295] |
| 1.1 to 5 | CNCCN(C)c1ccc(C)c(Nc2nc(-c3ccc(-n4ccnc4)cc3)cs2)c1 [Compound 258] |
| < 0.2 | CCN(CC)c1cc(C)c(Nc2nc(-c3ccc(-n4cnc(C)c4)cc3)cs2)cc1C [Compound 285] |
| 5.1 to 10 | CCN(CCOC)c1ccc(Nc2nc(-c3ccc(-n4cnc(C)c4)cc3C(F)(F)F)cs2)c(C)c1 [Compound 232] |
| 10.1 to 30 | COc1ccc(-c2coc(Nc3ccccc3)n2)cc1 [Compound 338] |
| < 0.2 | CCCN(CC)c1ccc(C)c(Nc2nc(-c3ccc(-n4cnc(C)c4)cc3)cs2)c1 [Compound 337] |
| < 0.2 | COc1cc(C)c(Nc2nc(-c3ccc(-n4cnc(C)c4)nc3)cs2)cc1C(C)C [Compound 296] |
| 0.2 to 1 | CCN(CCOC)c1ccc(Nc2nc(-c3ccc(-n4cnc(C)c4)cc3)cs2)c(C)c1 [Compound 231] |
| 1.1 to 5 | Cc1cn(-c2ccc(-c3nc(Nc4cc(C)c(C)cc4C)sc3C)cc2Br)cn1 [Compound 243] |
| 0.2 to 1 | CCN(CC)c1ccc(Nc2nc(-c3ccc(-c4ncc(Br)s4)cc3)cs2)c(C)c1 [Compound 312] |
| < 0.2 | CCN(CC)c1ccc(C)c(Nc2nc(-c3ccc(-n4cnc(C)c4)c(F)c3)cs2)c1 [Compound 309] |
| 5.1 to 10 | FC(F)(F)c1cc(NCc2ccccn2)ccc1Nc1nc(-c2ccc(-n3ccnc3)cc2)cs1 [Compound 223] |
| < 0.2 | COc1ccc(C)c(Nc2nc(-c3ccc(-n4ccnc4)cc3)cs2)c1 [Compound 351] |
| 0.2 to 1 | Cc1ccc(CO)cc1Nc1nc(-c2ccc(-n3ccnc3)cc2)cs1 [Compound 298] |
